Literature values, collected in patent US20160120807A1, “CELL-SURFACE DECORATION WITH ACTIVE AGENTS” (University of Louisville Research Foundation, Inc., priority 2005, published 2016).

Legend:
NPY Y1 receptor [1] = target: T1, NPY Y1 receptor (Homo sapiens, UniProt P25929)
T1 construct: host or cells: smooth muscle cells; vessel after angioplasty
T1 sequence (P25929 1-384): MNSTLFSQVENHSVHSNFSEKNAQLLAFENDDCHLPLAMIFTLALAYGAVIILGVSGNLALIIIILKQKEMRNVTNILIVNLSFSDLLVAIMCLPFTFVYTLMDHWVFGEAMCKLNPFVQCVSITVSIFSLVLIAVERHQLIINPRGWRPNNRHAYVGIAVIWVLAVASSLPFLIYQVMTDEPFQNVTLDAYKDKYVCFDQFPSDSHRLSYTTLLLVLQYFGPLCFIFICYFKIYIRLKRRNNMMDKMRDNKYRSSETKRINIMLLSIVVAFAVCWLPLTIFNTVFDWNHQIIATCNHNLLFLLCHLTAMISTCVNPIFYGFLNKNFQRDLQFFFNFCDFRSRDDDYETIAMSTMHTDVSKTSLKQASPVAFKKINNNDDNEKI

NPY Y1 receptor [2] = target: T1, NPY Y1 receptor; remark: listed apart in the source

- neointimal hyperplasia after angioplasty (NPY Y1 receptor [2]): reduces neointimal hyperplasia
Compound: N=C(N)NCCC[C@@H](NC(=O)C(c1ccccc1)c1ccccc1)C(=O)NCc1ccc(O)cc1 [BIBP3226, (R)—N2-(diphenylacetyl)-N-[(4-hydroxy-phenyl)methyl]-D-arginine-amide]
- mitogen-activated protein kinase (MAPK) activity in smooth muscle cells (NPY Y1 receptor [1]): reduces mitogen-activated protein kinase (MAPK) activity
